From US8679836B2, “Methods of monitoring angiogenesis and metastasis in three dimensional co-cultures” (The United States of America, as represented by the …, priority 2007, dated 2014)
Read-outs that look alike come from different tables or passages of the source.

Tests used:
[1] = tested on: PAE-GFP cells; experiment: Tubule formation assay on gelled BME, quantified with AngioApplication; format: cell-based, porcine; settings: for EC50: Sus scrofa
Method: This example describes exemplary procedures for measuring the ability of the cell lines disclosed herein for tubule formation potential. 50 μl of low growth factor BME (Basement Membrane Extract, Trevigen, Inc. Gaithersburg, Md.) were laid down in each well and the plate was incubated for 1 hour at 37° C. The extract gels at 37° C. to form a reconstituted basement membrane and stimulates tubule formation by endothelial cells. The major components of the Basement Membrane Extract (BME) include laminin I, collagen IV, entactin, and heparin sulfate proteoglycan. 15,000 PAE-GFP cells were then added on top of the gelled BME and images were acquired with a fluorescent microscope after 3.5-24 hours. Cells were imaged on the BD Pathway™ Bioimager. […] Tubule formation assays were quantified using the Java based software AngioApplication™. AngioApplication™ has been specifically designed for the quantification of tubule formation assays. Several morphological parameters were assessed in images including the total area of the tubules, the total number of tubules, number of nodes, number of branch points, the number of tubes per node, or node.
As shown in FIG. 7A increasing concentrations of suramin causes disruption of tubule formation. AngioApplication™ was used to automatically assess tube length at several concentrations of suramin. Traditionally quantification of tube formation was based in the measurement of complete (long) tubes in the image. AngioApplication™ determined that as the concentration of suramin was increased the number of long tubules was diminished. […] In addition, because AngioApplication™ calculates the length for all tubes in the image (including incomplete tubes) a more refined analysis was performed using the measurement of short (or incomplete) tubules. […] This is in agreement with the fact that Suramin interferes with the mechanism of tube formation.

[2] = tested on: PAE cells; experiment: 3D co-culture of fluorescent PAE cells with leiomyosarcoma HTB-88 xenograft biopsy tissue; format: cell-based, porcine; settings: 100 μg/ml, six days, FIG. 30
Method: Xenografts were prepared as in Example 7. Tumor xenografts were dissected when they reached about 1 cm in diameter and put into the sterile 15 ml or 50 ml tubes (Corning) with RPMI1640 medium supplemented with 10% FBS, 1% Glucose (Sigma), and 4× Antibiotic-Antimycotic (Invitrogen). The tumor xenografts were placed on wet ice and shipped to the lab within 2-3 hours. The Xenografts were rinsed 3 times in 70% ethanol and then 3 times in PBS. In the hood, the core biopsy was performed by biopsy punch (Miltex, Inc.) and was washed out into a 100 cm cell culture dish (Corning) by using a pipette to blow the top opening of the biopsy applicator. Using a disposable scalpel (Feather Safety Razor, Co. Japan), the core biopsy was dissected in three stages. 1 mm of both ends of the core biopsy was carefully cut off; they were transferred into a new 100 cm cell culture dish labeled P (peripheral section). Next, 1 mm of both ends of the remaining core biopsy were removed and discarded. […]
3D co-cultures were prepared as follows: 50 μl 1% SEAKEM™ LE agarose were added to individual wells of a 96-well plate and allowed to solidify at room temperature for 20 minutes. […] Cultures were incubated at 37° C. for 5-20 days and endothelial vessel network formation was observed by confocal laser scanning fluorescence microscopy. […]

[3] = tested on: HMEC-1; experiment: 3D co-culture of HMEC-1 with leiomyosarcoma HTB-88 core biopsy xenograft, panel of angiogenesis inhibitors; format: cell-based, human; settings: 100 μg/ml, five-day incubation, versus Thalidomide, Sunitinib, Fumagillin
Method: Peripheral ringlet xenograft tissue/HMEC-1 co-cultures were incubated with Avastin®, Thalidomide, Sunitinib or Fumagilin.
3D co-cultures were prepared as follows: 50 μl 1% SEAKEM™ LE agarose were added to individual wells of a 96-well plate and allowed to solidify at room temperature for 20 minutes. 30 μl GELTREX® gel matrix (Invitrogen) were combined with PAE, LEC or HMEC-1 cells at a cell density of 560,000 cells/ml and added to each well of the plate (atop the solidified agarose). Plates were maintained on wet ice (4° C.) to prevent solidification of the gel matrix/cell mixture (the second layer). A single tumor cell spheroid colony or single ringlet of xenograft core biopsy was added to the center of the well and the matrix gel was solidified at 37° C. On top of the tumor/endothelial cell gel layer, 80 μl EBM-2+1% FBS were added to a final concentration of EMB-2+0.5% FBS in relation to the total volume of the culture. Cultures were incubated at 37° C. for 5-20 days and endothelial vessel network formation was observed by confocal laser scanning fluorescence microscopy. […]
Identifying the most efficacious therapy for a particular patient is a crucial goal for successful cancer treatment. […] Several FDA approved anti-angiogenic compounds were assessed in this capacity, including Avastin®, Thalidomide, and Sunitinib as well as the non-FDA approved drug Fumagillin.

Compound | effect on tubule formation ([1]; PAE green cells, 0 to 26 μM) | EC50 ([1]; read-out: EC50, number of long tubules) | EC50 ([1]; read-out: EC50, number of short (incomplete) tubules) | EC50 ([1]; read-out: EC50 calculated, tubule formation) | effect on PAE proliferation [2] | effect on tubule formation [2] | inhibition of proliferation, compared with the other inhibitors [3] | inhibition of tubule formation, compared with the other inhibitors [3]
Cc1ccc(C(=O)Nc2ccc(S(=O)(=O)O)c3cc(S(=O)(=O)O)cc(S(=O)(=O)O)c23)cc1NC(=O)c1cccc(NC(=O)Nc2cccc(C(=O)Nc3cc(C(=O)Nc4ccc(S(=O)(=O)O)c5cc(S(=O)(=O)O)cc(S(=O)(=O)O)c45)ccc3C)c2)c1 [suramin] | inhibited tubule formation | ~26 µM | ~26 µM | ~26 µM |  |  |  | 
Avastin®: monoclonal antibody directed against an isoform of VEGF, FDA-approved angiogenesis inhibitor |  |  |  |  | inhibited | inhibited | greatest inhibition | greatest inhibition
